Assay type: physicochemical
Description: Thermogravimetric analysis (TGA) was performed using a Mettler TGA 2 equipped with a 34 position auto-sampler. The instrument was calibrated for energy and temperature using certified Isoderm and Nickel. 10.01 mg of the ceramide NP powder of Example 1 was added to a pinhole aluminum pan and heated from 20° C. to 800° C. at 10° C./min to perform thermogravimetric analysis. The TGA results of the ceramide NP powder of Example 1 are shown in FIG. 7, and the TGA results of the ceramide NP powder of Comparative Example 1 are shown in FIG. 8. The TGA results of ceramide NP powder of Example 1 and the ceramide NP powder of Comparative Example 1 are compared to each other by being arranged to overlap each other in FIG. 9.

Compound	mass remaining	stability compared with ceramide NP powder of Comparative Example 1	temperature at which decomposition began (no weight loss until then) (TGA, heated from 20° C. to 800° C. at 10° C./min) [°C]
CCCCCCCC/C=C\CCCCCCCC(=O)N[C@@H](CO)[C@H](O)[C@H](O)CCCCCCCCCCCCCC [Example 1, ceramide NP]	about 95%	more stable	200
ceramide NP [Comparative Example 1, reference compound]	about 95%		

Reference: patent US20260283927A1, “CRYSTALLINE FORM OF CERAMIDE NP AND COMPOSITION INCLUDING THE SAME” (CRODA KOREA LTD., priority 2023, published 2026)
